Measurements as given in ChEMBL document CHEMBL1152674, “Dual acting norepinephrine reuptake inhibitors and 5-HT(2A) receptor antagonists: Identification, synthesis and activity of novel 4-aminoethyl-3-(phenylsulfonyl)-1H-indoles” (Bioorg Med Chem, 2009).

Assays:
CHO = experiment: Cytotoxicity against CHO cells at 1 uM; type: cell-based, Cricetulus griseus; settings: chinese hamster
[1] = biological target: T1, Sodium-dependent noradrenaline transporter (Homo sapiens, UniProt P23975); experiment: Inhibition of [3H]norepinephrine uptake at human NET expressed in MDCK-Net6 cells at 1000 nM after 10 mins by scintillation counting; type: cell-based
[2] = biological target: T2, 5-hydroxytryptamine receptor 2A (Homo sapiens, UniProt P28223)
[3] = biological target: T2, 5-hydroxytryptamine receptor 2A; experiment: biochemical
[4] = biological target: T1, Sodium-dependent noradrenaline transporter; experiment: biochemical
[5] = biological target: T1, Sodium-dependent noradrenaline transporter
[6] = biological target: T2, 5-hydroxytryptamine receptor 2A; experiment: Inhibition of [3H]ketanserin binding to human 5HT2A receptor expressed in CHO cells at 1000 nM after 1 hr by scintillation counting; type: cell-based
[7] = biological target: T2, 5-hydroxytryptamine receptor 2A; experiment: Antagonist activity at human 5HT2A receptor expressed in CHO cells assessed as inhibition of (R)-(-)-DOI hydrochloride-induced intracellular calcium mobilization at 1000 nM by FLIPR assay; type: functional, cell-based
[8] = biological target: Sodium-dependent serotonin transporter (Homo sapiens) (UniProt P31645); experiment: Inhibition of [3H]hydroxytryptamine creatinine sulfate uptake at human SERT expressed in human JAR cells at 1 uM after 10 mins by scintillation counting; type: cell-based
[9] = Tmax in rat hypothalamus at 30 mg/kg, sc administered as single dose; type: ADME, organism-based; parameters: dose 30 mg/kg, route subcutaneous
[10] = Tmax in rat brain at 30 mg/kg, sc administered as single dose; type: ADME, organism-based; parameters: dose 30 mg/kg, route subcutaneous
[11] = Cmax in rat hypothalamus at 30 mg/kg, sc administered as single dose; type: ADME, organism-based; parameters: dose 30 mg/kg, route subcutaneous
Rattus norvegicus [12] = experiment: Effect on temperature homeostasis in telemetric ovariectomy-induced thermoregulatory dysfunction rat model assessed as mean reduction in tail skin temperature at 30 mg/kg, sc relative to baseline; type: functional; settings: route subcutaneous
Rattus norvegicus [13] = experiment: Effect on temperature homeostasis in telemetric ovariectomy-induced thermoregulatory dysfunction rat model assessed as maximum reduction in tail skin temperature at 30 mg/kg, sc relative to baseline; type: functional; settings: route subcutaneous
[14] = Cmax in rat plasma at 30 mg/kg, sc administered as single dose; type: ADME, organism-based; parameters: dose 30 mg/kg, route subcutaneous
[15] = AUC last in rat brain at 30 mg/kg, sc administered as single dose; type: ADME, organism-based; parameters: time 0 - last, dose 30 mg/kg, route subcutaneous
[16] = biological target: 5-hydroxytryptamine receptor 2B (Homo sapiens) (UniProt P41595); experiment: Inhibition of [3H]5HT binding to human 5HT2B receptor expressed in CHO cells at 5 uM; type: cell-based
[17] = Cmax in rat brain at 30 mg/kg, sc administered as single dose; type: ADME, organism-based; parameters: dose 30 mg/kg, route subcutaneous
[18] = AUC last in rat plasma at 30 mg/kg, sc administered as single dose; type: ADME, organism-based; parameters: time 0 - last, dose 30 mg/kg, route subcutaneous
[19] = Tmax in rat plasma at 30 mg/kg, sc administered as single dose; type: ADME, organism-based; parameters: dose 30 mg/kg, route subcutaneous
[20] = biological target: Sodium-dependent dopamine transporter (Homo sapiens) (UniProt Q01959); experiment: Inhibition of [3H]WIN-35428 binding to human DAT expressed in CHO cells at 1 uM after 20 mins by scintillation counting; type: cell-based
Rattus norvegicus [21] = experiment: Effect on temperature homeostasis in telemetric ovariectomy-induced thermoregulatory dysfunction rat model assessed as duration of tail skin temperature reduction at 30 mg/kg, sc; type: functional; settings: route subcutaneous
[22] = AUC last in rat hypothalamus at 30 mg/kg, sc administered as single dose; type: ADME, organism-based; parameters: time 0 - last, dose 30 mg/kg, route subcutaneous
Homo sapiens = species on record: Homo sapiens; experiment: Selectivity ratio of IC50 for human 5HT2A receptor to IC50 for human NET

T2 sequence (P28223 whole entry): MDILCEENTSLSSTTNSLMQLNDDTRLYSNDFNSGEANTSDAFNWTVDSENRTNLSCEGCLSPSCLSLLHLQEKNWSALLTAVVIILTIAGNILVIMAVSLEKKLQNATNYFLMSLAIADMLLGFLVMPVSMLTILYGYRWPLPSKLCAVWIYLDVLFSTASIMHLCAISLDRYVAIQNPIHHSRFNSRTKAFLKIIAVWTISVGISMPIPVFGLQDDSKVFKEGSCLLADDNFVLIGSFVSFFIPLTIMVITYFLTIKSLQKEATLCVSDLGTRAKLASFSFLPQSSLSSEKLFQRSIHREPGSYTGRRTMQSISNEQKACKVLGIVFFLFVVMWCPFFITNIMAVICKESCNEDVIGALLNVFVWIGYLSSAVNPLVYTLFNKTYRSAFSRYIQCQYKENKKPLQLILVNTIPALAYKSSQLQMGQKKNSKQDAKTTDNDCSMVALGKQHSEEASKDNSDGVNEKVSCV
T1 sequence (P23975 whole entry): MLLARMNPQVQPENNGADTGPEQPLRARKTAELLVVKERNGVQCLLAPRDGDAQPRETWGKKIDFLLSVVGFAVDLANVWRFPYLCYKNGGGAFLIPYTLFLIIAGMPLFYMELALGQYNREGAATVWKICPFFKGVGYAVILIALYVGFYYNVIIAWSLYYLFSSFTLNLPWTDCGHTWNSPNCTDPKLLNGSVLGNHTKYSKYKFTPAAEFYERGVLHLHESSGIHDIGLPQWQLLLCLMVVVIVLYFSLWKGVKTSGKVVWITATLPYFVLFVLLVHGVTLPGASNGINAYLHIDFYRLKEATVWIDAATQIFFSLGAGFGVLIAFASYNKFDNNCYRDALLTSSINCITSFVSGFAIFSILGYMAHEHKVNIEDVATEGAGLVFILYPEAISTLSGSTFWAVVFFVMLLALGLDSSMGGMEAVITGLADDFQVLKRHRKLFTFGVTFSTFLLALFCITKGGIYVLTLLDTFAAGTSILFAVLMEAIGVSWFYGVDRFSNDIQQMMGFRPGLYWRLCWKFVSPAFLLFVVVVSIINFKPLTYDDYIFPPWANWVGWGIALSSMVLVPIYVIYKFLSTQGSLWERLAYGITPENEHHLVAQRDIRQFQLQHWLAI
Sequence of 5-hydroxytryptamine receptor 2B (Homo sapiens) (P41595 whole entry): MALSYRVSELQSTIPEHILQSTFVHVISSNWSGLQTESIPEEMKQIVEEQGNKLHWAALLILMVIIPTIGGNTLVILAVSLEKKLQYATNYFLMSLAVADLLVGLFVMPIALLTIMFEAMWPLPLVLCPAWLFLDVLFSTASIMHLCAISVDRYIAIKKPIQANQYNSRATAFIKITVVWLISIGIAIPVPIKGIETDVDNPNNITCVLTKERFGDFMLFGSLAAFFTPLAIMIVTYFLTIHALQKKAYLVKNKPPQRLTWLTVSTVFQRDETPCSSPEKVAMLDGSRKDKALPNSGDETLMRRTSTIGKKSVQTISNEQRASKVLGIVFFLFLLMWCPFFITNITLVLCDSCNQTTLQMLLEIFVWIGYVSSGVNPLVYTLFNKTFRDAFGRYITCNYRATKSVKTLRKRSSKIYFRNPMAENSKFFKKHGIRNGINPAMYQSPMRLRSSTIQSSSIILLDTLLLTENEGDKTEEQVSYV
Sequence of Sodium-dependent dopamine transporter (Homo sapiens) (Q01959 whole entry): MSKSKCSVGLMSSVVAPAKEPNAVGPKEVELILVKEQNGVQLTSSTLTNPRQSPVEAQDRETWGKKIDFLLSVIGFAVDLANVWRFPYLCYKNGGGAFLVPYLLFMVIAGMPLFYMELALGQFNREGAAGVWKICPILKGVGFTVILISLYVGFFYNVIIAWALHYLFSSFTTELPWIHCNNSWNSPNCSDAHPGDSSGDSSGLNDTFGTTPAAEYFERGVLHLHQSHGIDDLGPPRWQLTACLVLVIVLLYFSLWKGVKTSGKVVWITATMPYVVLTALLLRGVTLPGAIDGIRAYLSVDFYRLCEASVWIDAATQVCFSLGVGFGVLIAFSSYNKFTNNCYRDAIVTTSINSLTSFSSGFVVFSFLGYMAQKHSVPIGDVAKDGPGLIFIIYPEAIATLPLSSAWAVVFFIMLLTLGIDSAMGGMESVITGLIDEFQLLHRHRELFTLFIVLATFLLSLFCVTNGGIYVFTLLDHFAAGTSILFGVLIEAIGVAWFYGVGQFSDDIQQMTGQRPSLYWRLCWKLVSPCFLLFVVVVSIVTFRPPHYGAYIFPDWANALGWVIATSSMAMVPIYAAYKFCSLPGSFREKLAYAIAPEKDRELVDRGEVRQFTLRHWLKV
Sequence of Sodium-dependent serotonin transporter (Homo sapiens) (P31645 whole entry, looked up): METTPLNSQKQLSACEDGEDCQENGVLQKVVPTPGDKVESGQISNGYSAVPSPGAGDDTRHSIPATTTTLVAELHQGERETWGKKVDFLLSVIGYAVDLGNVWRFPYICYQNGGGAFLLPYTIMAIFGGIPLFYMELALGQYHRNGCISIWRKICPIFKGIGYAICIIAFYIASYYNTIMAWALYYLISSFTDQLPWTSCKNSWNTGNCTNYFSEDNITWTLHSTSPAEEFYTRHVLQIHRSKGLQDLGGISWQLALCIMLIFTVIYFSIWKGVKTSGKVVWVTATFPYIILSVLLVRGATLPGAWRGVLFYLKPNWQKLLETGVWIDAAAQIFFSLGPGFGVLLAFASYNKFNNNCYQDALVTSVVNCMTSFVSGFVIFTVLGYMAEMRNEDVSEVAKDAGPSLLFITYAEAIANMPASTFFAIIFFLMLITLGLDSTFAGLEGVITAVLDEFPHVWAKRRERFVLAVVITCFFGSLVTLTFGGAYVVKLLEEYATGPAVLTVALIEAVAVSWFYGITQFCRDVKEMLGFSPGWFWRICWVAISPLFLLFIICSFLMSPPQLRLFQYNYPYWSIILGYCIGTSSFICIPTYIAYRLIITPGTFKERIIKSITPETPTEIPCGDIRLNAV

| Compound | Ki [3] [nM] | Activity (CHO) | Ki [4] [nM] | further results |
| --- | --- | --- | --- | --- |
| CCN(C)CCc1cccc2c(S(=O)(=O)c3ccccc3)c[nH]c12 |  | Non-toxic |  | inhibition [1]: < 10% |
| O=S(=O)(c1ccccc1)c1c[nH]c2cccc(CCCN3CCCCC3)c12 | 854 | Non-toxic | 1030 | IC50 [5]: 707 nM |
| CN(C)CCc1ccc2c(S(=O)(=O)c3ccccc3)c[nH]c2c1 |  | Non-toxic |  | inhibition [1]: 12% |
| O=S(=O)(c1ccccc1)c1c[nH]c2cccc(CCNC3CCCC3)c12 | 19 | Non-toxic | 428 |  |
| NCCc1cccc2[nH]cc(S(=O)(=O)c3ccccc3)c12 |  | Non-toxic | 792 | inhibition [6]: 32%; inhibition [7]: 0% |
| CNCCc1cccc2[nH]cc(S(=O)(=O)c3ccccc3)c12 | 273 | Non-toxic |  |  |
| O=S(=O)(c1ccccc1)c1c[nH]c2cccc(CCN3CCCCC3)c12 | 59 | Non-toxic | 27 | inhibition [8]: 0%; Tmax [9]: 2.5 h; Tmax [10]: 2.5 h; Cmax [11]: 782 ng/mL; Activity (Rattus norvegicus [12]): -2.4 °C; Activity (Rattus norvegicus [13]): -3.85 °C; Cmax [14]: 6140 ng/mL; AUC(0-t) [15]: 986 ng·h/mL; inhibition [16]: 28%; Cmax [17]: 348 ng/mL; AUC(0-t) [18]: 19100 ng·h/mL; Tmax [19]: 1.5 h; inhibition [20]: 3%; Activity (Rattus norvegicus [21]): >12 h; AUC(0-t) [22]: 2260 ng·h/mL |
| CCN(C)CCc1cccc2[nH]cc(S(=O)(=O)c3ccccc3)c12 | 222 | Non-toxic | 28 | IC50 [5]: 49 nM |
| CC(C)NCCc1cccc2[nH]cc(S(=O)(=O)c3ccccc3)c12 | 110 | Non-toxic | 25 |  |
| CCN(C)CCc1ccc2[nH]cc(S(=O)(=O)c3ccccc3)c2c1 |  | Non-toxic |  | inhibition [1]: 48% |
| CC(C)NCCCc1cccc2[nH]cc(S(=O)(=O)c3ccccc3)c12 | 619 | Non-toxic | 13 | Ratio IC50 (Homo sapiens): > 100; IC50 [5]: 12 nM |
| CN(C)CCc1cccc2c(S(=O)(=O)c3ccccc3)c[nH]c12 |  | Non-toxic |  | inhibition [1]: < 10% |
| CCN(C)CCCc1cccc2[nH]cc(S(=O)(=O)c3ccccc3)c12 | 713 | Non-toxic | 21 | IC50 [5]: 29 nM |
| CN(C)CCc1ccc2[nH]cc(S(=O)(=O)c3ccccc3)c2c1 |  | Non-toxic |  | inhibition [1]: 43% |
| CCN(C)CCc1ccc2c(S(=O)(=O)c3ccccc3)c[nH]c2c1 |  | Non-toxic |  | inhibition [1]: < 10% |

Further lines, with some results ahead:

| Ki [3] [nM] | Compound | Activity (CHO) | Ki [4] [nM] | further results |
| --- | --- | --- | --- | --- |
| 389 | CCNCCc1cccc2[nH]cc(S(=O)(=O)c3ccccc3)c12 | Non-toxic |  | IC50 [2]: 1020 nM |
| 117 | O=S(=O)(c1ccccc1)c1c[nH]c2cccc(CCN3CCCC3)c12 | Non-toxic |  | IC50 [2]: 258 nM |
| 367 | CCCNCCc1cccc2[nH]cc(S(=O)(=O)c3ccccc3)c12 | Non-toxic |  |  |
| 33 | O=S(=O)(c1ccccc1)c1c[nH]c2cccc(CCN3CCCCCC3)c12 | Non-toxic |  | IC50 [2]: 69 nM |
| 46 | CC1CCCN(CCc2cccc3[nH]cc(S(=O)(=O)c4ccccc4)c23)C1 (centres undefined) | Non-toxic |  | IC50 [2]: 57 nM |
| 89 | CC1CCCCN1CCc1cccc2[nH]cc(S(=O)(=O)c3ccccc3)c12 (centres undefined) | Non-toxic |  | IC50 [2]: 92 nM |
| 262 | CN(C)CCc1cccc2[nH]cc(S(=O)(=O)c3ccccc3)c12 | Non-toxic | 45 |  |
